For 18 compounds, EC50 results are on record in patent US20240043404A1 (AbbVie Inc., priority 2009, published 2024).

This assay deals with RS4;11 cells. The assay can be described thus: RS4;11 cell viability assay (CellTiter Glo).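 Note: acute lymphoblastic leukemia line RS4,11, EC50 derived from percentage of viable cells after treatment relative to untreated controls, cell killing taken as a measure of Bcl-2 inhibition.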 In kind it is cell-based, human. The following applies: Homo sapiens, RS4-11, 48 h, 50,000 cells per well, 10% human serum, 48 hours; read-out: RS4; 11 EC50 Values. In general terms: ATP-based viability assays read luminescence as a measure of living cells.
Description: The acute lymphoblastic leukemia (ALL) cell line RS4;11 was used as the primary human cell line to assess the cellular activity of Bcl-2 selective agents in vitro and their efficacy in vivo.
Cell cytotoxicity EC50 values were assessed using CellTiter Glo (Promega) according to the manufacturer's recommendations. The EC50 values were determined as a percentage of viable cells following treatment compared to the untreated control cells.
On to `CC1(C)CCC(CN2CCN(c3ccc(C(=O)NS(=O)(=O)c4ccc(NCC5CN(C6COC6)CCO5)c([N+](=O)[O-])c4)c(Oc4cnc5[nH]ccc5c4)c3)CC2)=C(c2ccc(Cl)cc2)C1` (stereo not drawn) [Example 217, 4-(4-{[2-(4-chlorophenyl)-4,4-dimethylcyclohex-1-en-1-yl]methyl}piperazin-1-yl)-N-{[3-nitro-4-({[4-(oxetan-3-yl)morpholin-2-yl]methyl}amino)phenyl]sulfonyl}-2-(1H-pyrrolo[2,3-b]pyridin-5-yloxy)benzamide], for which the EC50 came out at 1.55 nM. The result for `CC1(C)CCC(CN2CCN(c3ccc(C(=O)NS(=O)(=O)c4ccc(NCC5CN(C6CC6)CCO5)c([N+](=O)[O-])c4)c(Oc4cnc5[nH]ccc5c4)c3)CC2)=C(c2ccc(Cl)cc2)C1` (stereo not drawn) [Example 218, 4-(4-{[2-(4-chlorophenyl)-4,4-dimethylcyclohex-1-en-1-yl]methyl}piperazin-1-yl)-N-[(4-{[(4-cyclopropylmorpholin-2-yl)methyl]amino}-3-nitrophenyl)sulfonyl]-2-(1H-pyrrolo[2,3-b]pyridin-5-yloxy)benzamide] reads 7.29 nM; that for `CC1(C)CCC(CN2CCN(c3ccc(C(=O)NS(=O)(=O)c4cnc(OCC5CCOCC5)c(S(C)(=O)=O)c4)c(Oc4cnc5[nH]ccc5c4)c3)CC2)=C(c2ccc(Cl)cc2)C1` [Example 219, 4-(4-{[2-(4-chlorophenyl)-4,4-dimethylcyclohex-1-en-1-yl]methyl}piperazin-1-yl)-N-{[5-(methylsulfonyl)-6-(tetrahydro-2H-pyran-4-ylmethoxy)pyridin-3-yl]sulfonyl}-2-(1H-pyrrolo[2,3-b]pyridin-5-yloxy)benzamide], over 1000 nM; that for `CC1(C)CCC(CN2CCN(c3ccc(C(=O)NS(=O)(=O)c4ccc(OCC5(F)CCOCC5)c(S(=O)(=O)C(F)(F)F)c4)c(Oc4cnc5[nH]ccc5c4)c3)CC2)=C(c2ccc(Cl)cc2)C1` [Example 220, 4-(4-{[2-(4-chlorophenyl)-4,4-dimethylcyclohex-1-en-1-yl]methyl}piperazin-1-yl)-N-({4-[(4-fluorotetrahydro-2H-pyran-4-yl)methoxy]-3-[(trifluoromethyl)sulfonyl]phenyl}sulfonyl)-2-(1H-pyrrolo[2,3-b]pyridin-5-yloxy)benzamide], over 1000 nM. For `CC1(C)CCC(CN2CCN(c3ccc(C(=O)NS(=O)(=O)c4ccc(OCC5(C)CCOCC5)c([N+](=O)[O-])c4)c(Oc4cnc5[nH]ccc5c4)c3)CC2)=C(c2ccc(Cl)cc2)C1` [Example 221, 4-(4-{[2-(4-chlorophenyl)-4,4-dimethylcyclohex-1-en-1-yl]methyl}piperazin-1-yl)-N-({4-[(4-methyltetrahydro-2H-pyran-4-yl)methoxy]-3-nitrophenyl}sulfonyl)-2-(1H-pyrrolo[2,3-b]pyridin-5-yloxy)benzamide], the EC50 was 94.8 nM. The result for `CCOC(=O)N1CCN(c2ccc(S(=O)(=O)NC(=O)c3ccc(N4CCN(CC5=C(c6ccc(Cl)cc6)CC(C)(C)CC5)CC4)cc3Oc3cnc4[nH]ccc4c3)cc2[N+](=O)[O-])CC1` [Example 222, ethyl 4-(4-{[4-(4-{[2-(4-chlorophenyl)-4,4-dimethylcyclohex-1-en-1-yl]methyl}piperazin-1-yl)-2-(1H-pyrrolo[2,3-b]pyridin-5-yloxy)benzoyl]sulfamoyl}-2-nitrophenyl)piperazine-1-carboxylate] reads over 1000 nM; that for `CC1(C)CCC(CN2CCN(c3ccc(C(=O)NS(=O)(=O)c4ccc(N5CCC(N6CCOCC6)CC5)c([N+](=O)[O-])c4)c(Oc4cnc5[nH]ccc5c4)c3)CC2)=C(c2ccc(Cl)cc2)C1` [Example 223, 4-(4-{[2-(4-chlorophenyl)-4,4-dimethylcyclohex-1-en-1-yl]methyl}piperazin-1-yl)-N-({4-[4-(morpholin-4-yl)piperidin-1-yl]-3-nitrophenyl}sulfonyl)-2-(1H-pyrrolo[2,3-b]pyridin-5-yloxy)benzamide], 182 nM.

Consider `CC1(C)CCC(CN2CCN(c3ccc(C(=O)NS(=O)(=O)c4ccc(N[C@@H]5CCN(C6COC6)C5)c([N+](=O)[O-])c4)c(Oc4cnc5[nH]ccc5c4)c3)CC2)=C(c2ccc(Cl)cc2)C1` [Example 224, 4-(4-{[2-(4-chlorophenyl)-4,4-dimethylcyclohex-1-en-1-yl]methyl}piperazin-1-yl)-N-[(3-nitro-4-{[(3R)-1-(oxetan-3-yl)pyrrolidin-3-yl]amino}phenyl)sulfonyl]-2-(1H-pyrrolo[2,3-b]pyridin-5-yloxy)benzamide], for which the EC50 turned out to be 13.9 nM.

Take `CC1(C)CCC(CN2CCN(c3ccc(C(=O)NS(=O)(=O)c4ccc(N[C@@H]5CCN(C(CF)CF)C5)c(S(=O)(=O)C(F)(F)F)c4)c(Oc4cnc5[nH]ccc5c4)c3)CC2)=C(c2ccc(Cl)cc2)C1` [Example 225, 4-(4-{[2-(4-chlorophenyl)-4,4-dimethylcyclohex-1-en-1-yl]methyl}piperazin-1-yl)-N-[(4-{[(3R)-1-(1,3-difluoropropan-2-yl)pyrrolidin-3-yl]amino}-3-[(trifluoromethyl)sulfonyl]phenyl)sulfonyl]-2-(1H-pyrrolo[2,3-b]pyridin-5-yloxy)benzamide]: the EC50 was 560 nM. For `CC(C)N1CCC(Nc2ccc(S(=O)(=O)NC(=O)c3ccc(N4CCN(CC5=C(c6ccc(Cl)cc6)CC(C)(C)CC5)CC4)cc3Oc3cnc4[nH]ccc4c3)cc2[N+](=O)[O-])CC1` [Example 226, 4-(4-{[2-(4-chlorophenyl)-4,4-dimethylcyclohex-1-en-1-yl]methyl}piperazin-1-yl)-N-({4-[(1-isopropylpiperidin-4-yl)amino]-3-nitrophenyl}sulfonyl)-2-(1H-pyrrolo[2,3-b]pyridin-5-yloxy)benzamide] the value was 118 nM; for `CC1(C)CCC(CN2CCN(c3ccc(C(=O)NS(=O)(=O)c4ccc(NC5CCN(C(C)(C)C)CC5)c([N+](=O)[O-])c4)c(Oc4cnc5[nH]ccc5c4)c3)CC2)=C(c2ccc(Cl)cc2)C1` [Example 227, N-({4-[(1-tert-butylpiperidin-4-yl)amino]-3-nitrophenyl}sulfonyl)-4-(4-{[2-(4-chlorophenyl)-4,4-dimethylcyclohex-1-en-1-yl]methyl}piperazin-1-yl)-2-(1H-pyrrolo[2,3-b]pyridin-5-yloxy)benzamide], 7.36 nM; for `COCCN1CCCC(CNc2ccc(S(=O)(=O)NC(=O)c3ccc(N4CCN(CC5=C(c6ccc(Cl)cc6)CC(C)(C)CC5)CC4)cc3Oc3cnc4[nH]ccc4c3)cc2[N+](=O)[O-])C1` (stereo not drawn) [Example 228, 4-(4-{[2-(4-chlorophenyl)-4,4-dimethylcyclohex-1-en-1-yl]methyl}piperazin-1-yl)-N-{[4-({[1-(2-methoxyethyl)piperidin-3-yl]methyl}amino)-3-nitrophenyl]sulfonyl}-2-(1H-pyrrolo[2,3-b]pyridin-5-yloxy)benzamide], over 1000 nM. For `CC1(C)CCC(CN2CCN(c3ccc(C(=O)NS(=O)(=O)c4ccc(NCC5CCCN(CC#N)C5)c([N+](=O)[O-])c4)c(Oc4cnc5[nH]ccc5c4)c3)CC2)=C(c2ccc(Cl)cc2)C1` (stereo not drawn) [Example 229, 4-(4-{[2-(4-chlorophenyl)-4,4-dimethylcyclohex-1-en-1-yl]methyl}piperazin-1-yl)-N-{[4-({[1-(cyanomethyl)piperidin-3-yl]methyl}amino)-3-nitrophenyl]sulfonyl}-2-(1H-pyrrolo[2,3-b]pyridin-5-yloxy)benzamide] the value was over 1000 nM. For `CN1CCC(F)(COc2ccc(S(=O)(=O)NC(=O)c3ccc(N4CCN(CC5=C(c6ccc(Cl)cc6)CC(C)(C)CC5)CC4)cc3Oc3cnc4[nH]ccc4c3)cc2S(=O)(=O)C(F)(F)F)CC1` [Example 230, 4-(4-{[2-(4-chlorophenyl)-4,4-dimethylcyclohex-1-en-1-yl]methyl}piperazin-1-yl)-N-({4-[(4-fluoro-1-methylpiperidin-4-yl)methoxy]-3-[(trifluoromethyl)sulfonyl]phenyl}sulfonyl)-2-(1H-pyrrolo[2,3-b]pyridin-5-yloxy)benzamide] the value was 52.8 nM.

Consider `CC1(C)CCC(CN2CCN(c3ccc(C(=O)NS(=O)(=O)c4cnc(N[C@@H]5CCN(C(CF)CF)C5)c(Cl)c4)c(Oc4cnc5[nH]ccc5c4)c3)CC2)=C(c2ccc(Cl)cc2)C1` [Example 231, N-[(5-chloro-6-{[(3R)-1-(1,3-difluoropropan-2-yl)pyrrolidin-3-yl]amino}pyridin-3-yl)sulfonyl]-4-(4-{[2-(4-chlorophenyl)-4,4-dimethylcyclohex-1-en-1-yl]methyl}piperazin-1-yl)-2-(1H-pyrrolo[2,3-b]pyridin-5-yloxy)benzamide], for which the EC50 worked out at 523 nM. For `CC1(C)CCC(CN2CCN(c3ccc(C(=O)NS(=O)(=O)c4ccc(NN5CCN(C(=O)OC(C)(C)C)CC5)c([N+](=O)[O-])c4)c(Oc4cnc5[nH]ccc5c4)c3)CC2)=C(c2ccc(Cl)cc2)C1` [Example 232, tert-butyl 4-[(4-{[4-(4-{[2-(4-chlorophenyl)-4,4-dimethylcyclohex-1-en-1-yl]methyl}piperazin-1-yl)-2-(1H-pyrrolo[2,3-b]pyridin-5-yloxy)benzoyl]sulfamoyl}-2-nitrophenyl)amino]piperazine-1-carboxylate] the value was over 1000 nM; for `CC1(C)CCC(CN2CCN(c3ccc(C(=O)NS(=O)(=O)c4ccc(NCC5CCOCC5)c(S(F)(F)(F)(F)F)c4)c(Oc4cnc5[nH]ccc5c4)c3)CC2)=C(c2ccc(Cl)cc2)C1` [Example 233, 4-(4-{[2-(4-chlorophenyl)-4,4-dimethylcyclohex-1-en-1-yl]methyl}piperazin-1-yl)-N-({3-(pentafluoro-lambda˜6˜-sulfanyl)-4-[(tetrahydro-2H-pyran-4-ylmethyl)amino]phenyl}sulfonyl)-2-(1H-pyrrolo[2,3-b]pyridin-5-yloxy)benzamide], over 1000 nM. The result for `COC1(COc2ccc(S(=O)(=O)NC(=O)c3ccc(N4CCN(CC5=C(c6ccc(Cl)cc6)CC(C)(C)CC5)CC4)cc3Oc3cnc4[nH]ccc4c3)cc2[N+](=O)[O-])CCOCC1` [Example 234, 4-(4-{[2-(4-chlorophenyl)-4,4-dimethylcyclohex-1-en-1-yl]methyl}piperazin-1-yl)-N-({4-[(4-methoxytetrahydro-2H-pyran-4-yl)methoxy]-3-nitrophenyl}sulfonyl)-2-(1H-pyrrolo[2,3-b]pyridin-5-yloxy)benzamide] reads 135 nM.
